The values that follow come from patent US20130150325A1, “3-(Fluorovinyl)pyrazoles and their use” (BAYER INTELLECTUAL PROPERTY GMBH, priority 2011, published 2013).

This test relates to HCT 116 cells transfected with a luciferase reporter under the control of an HIF-responsive sequence. The test can be described thus: HIF-luciferase assay. Format: cell-based. The settings on record: Homo sapiens; HCT 116 HIF-luciferase reporter cells, hypoxia chamber (1% O2), 24 h; in some cases means of up to four individual determinations. As for the experimental part:
HCT 116 cells were transfected in a stable manner with a plasmid which contained a luciferase reporter under the control of an HIF-responsive sequence. These cells were sown in microtitre plates [20 000 cells/cavity in RPMI 1640 medium with 10% foetal calf serum (FCS) and 100 μg/ml of hygromycin]. Incubation was carried out overnight under standard conditions (5% CO2, 21% O2, 37° C., moistened). The following morning the cells were incubated with various concentrations of the test substances (0-10 μmol/l) in a hypoxia chamber (1% O2). After 24 h, Bright Glo reagent (Promega, Wisconsin, USA) was added in accordance with the manufacturer's instructions, and after 5 min the luminescence was measured. Cells which were incubated under normoxia served as background controls.
The IC50 values from this assay for representative working examples are listed in the following table (in same cases as means of up to four individual determinations): […]
In the case of `Cc1cc(/C(F)=C/c2ccc(C(C)(C)C(F)(F)F)c(F)c2)nn1Cc1cccc(C2(CO)CC2)c1` [Example 58, (1-{3-[(3-{(Z)-1-Fluoro-2-[3-fluoro-4-(1,1,1-trifluoro-2-methylpropan-2-yl)phenyl]vinyl}-5-methyl-1H-pyrazol-1-yl)methyl]phenyl}cyclopropyl)methanol], 2 nM corresponded to half-maximal inhibition (IC50). As to `Cc1cc(/C=C(\F)c2ccc(OC(F)(F)F)cc2)nn1Cc1cccc(C(=O)N2CCCC2)c1` [Example 114, {3-[(3-{(Z)-2-Fluoro-2-[4-(trifluoromethoxy)phenyl]vinyl}-5-methyl-1H-pyrazol-1-yl)methyl]-phenyl}(pyrrolidin-1-yl)methanone], half-maximal inhibition (IC50) required 40 nM.

Compound `CC(=O)OC1(c2cccc(Cn3nc(/C(F)=C/c4ccc(C5(C(F)(F)F)CC5)cc4)cc3C)c2)CC1` [Example 46, 1-[3-({3-[(Z)-1-Fluoro-2-{4-[1-(trifluoromethyl)cyclopropyl]phenyl}vinyl]-5-methyl-1H-pyrazol-1-yl}methyl)phenyl]cyclopropyl acetate] registered an IC50 of 0.7 nM. To `Cc1cc(/C(F)=C/c2ccc(C(C)(C)C(F)(F)F)cc2)nn1Cc1cccc(CC(C)(C)O)c1` [Example 64, 1-{3-[(3-{(Z)-1-Fluoro-2-[4-(1,1,1-trifluoro-2-methylpropan-2-yl)phenyl]vinyl}-5-methyl-1H-pyrazol-1-yl)methyl]phenyl}-2-methylpropan-2-ol] belongs 2 nM. As for `Cc1cc(/C(F)=C/c2ccc(C(C)(C)C(F)(F)F)cc2)nn1Cc1cccc(N2CCC(C#N)CC2)c1` [Example 10, 1-{3-[(3-{(Z)-1-Fluoro-2-[4-(1,1,1-trifluoro-2-methylpropan-2-yl)phenyl]vinyl}-5-methyl-1H-pyrazol-1-yl)methyl]phenyl}piperidine-4-carbonitrite], the IC50 was 0.4 nM. To `Cc1cc(/C(F)=C/c2ccc(C3(C(F)(F)F)CC3)cc2)nn1Cc1cccc(C(=O)N2CCC(O)CC2)c1` [Example 35, [3-({3-[(Z)-1-Fluoro-2-{4-[1-(trifluoromethyl)cyclopropyl]phenyl}vinyl]-5-methyl-1H-pyrazol-1-yl}methyl)phenyl](4-hydroxypiperidin-1-yl)methanone] belongs 5 nM; to `Cc1cc(/C(F)=C/c2ccc(C(C)(C)C(F)(F)F)cc2)nn1Cc1cccc(C(=O)N2CCC(O)CC2)c1` [Example 34, {3-[(3-{(Z)-1-Fluoro-2-[4-(1,1,1-trifluoro-2-methylpropan-2-yl)phenyl]vinyl}-5-methyl-1H-pyrazol-1-yl)methyl]phenyl}(4-hydroxypiperidin-1-yl)methanone], 5 nM. For `Cc1cc(/C(F)=C/c2ccc(C(C)(C)C)cc2)nn1Cc1ccnc(N2CCN(CC(F)(F)F)CC2)c1` [Example 110, 1-[4-({3-[(Z)-2-(4-tert-Butylphenyl)-1-fluorovinyl]-5-methyl-1H-pyrazol-1-yl}methyl)pyridin-2-yl]-4-(2,2,2-trifluoroethyl)piperazine], inhibition was half-maximal at 1 nM (IC50). To `Cc1cc(/C(F)=C/c2ccc(C3(C(F)(F)F)CC3)cc2)nn1Cc1cccc(N2CCC(O)CC2)c1` [Example 14, 1-[3-({3-[(Z)-1-Fluoro-2-{4-[1-(trifluoromethyl)cyclopropyl]phenyl}vinyl]-5-methyl-1H-pyrazol-1-yl}methyl)phenyl]piperidin-4-ol] belongs 0.2 nM; to `Cc1cc(/C(F)=C/c2ccc(OC(F)(F)F)cc2)nn1Cc1cccc(C2(CO)CC2)c1` [Example 55, (1-{3-[(3-{(Z)-1-Fluoro-2-[4-(trifluoromethoxy)phenyl]vinyl}-5-methyl-1H-pyrazol-1-yl)methyl]-phenyl}cyclopropyl)methanol], 4 nM; to `Cc1cc(/C(F)=C/c2ccc(C(O)(C(F)(F)F)C(F)(F)F)cc2)nn1Cc1ccnc(N2CCN(C3CC3)CC2)c1` [Example 108, 2-{4-[(Z)-2-(1-{[2-(4-Cyclopropylpiperazin-1-yl)pyridin-4-yl]methyl}-5-methyl-1H-pyrazol-3-yl)-2-fluorovinyl]phenyl}-1,1,1,3,3,3-hexafluoropropan-2-ol], 3 nM.

Take `CNc1ccc(Cn2nc(/C(F)=C/c3ccc(C(C)(C)C)cc3)cc2C)cn1` [Example 87, 5-({3-[(Z)-2-(4-tert-Butylphenyl)-1-fluorovinyl]-5-methyl-1H-pyrazol-1-yl}methyl)-N-methylpyridine-2-amine]: it took 0.7 nM to reach half-maximal inhibition (IC50). The same measure for `Cc1cc(/C(F)=C/c2ccc(C3(C(F)(F)F)CC3)cc2)nn1Cc1cccc(C(=O)N2CCCC2)c1` [Example 29, [3-({3-[(Z)-1-Fluoro-2-{4-[1-(trifluoromethyl)cyclopropyl]phenyl}vinyl]-5-methyl-1H-pyrazol-1-yl}methyl)phenyl](pyrrolidin-1-yl)methanone]: 5 nM; for `Cc1cc(/C(F)=C/c2ccc(C(C)(C)C(F)(F)F)cc2)nn1Cc1cccc(Br)c1` [Example 7, 1-(3-Bromobenzyl)-3-{(Z)-1-fluoro-2-[4-(1,1,1-trifluoro-2-methylpropan-2-yl)phenyl]vinyl}-5-methyl-1H-pyrazole]: 40 nM. The compound `Cc1cc(/C=C(\F)c2ccc(OC(F)(F)F)cc2)nn1Cc1ccnc(N2CCN(C3CC3)CC2)c1` [Example 120, 1-Cyclopropyl-4-{4-[(3-{(Z)-2-fluoro-2-[4-(trifluoromethoxy)phenyl]vinyl}-5-methyl-1H-pyrazol-1-yl)methyl]pyridin-2-yl}piperazine] showed a 50% inhibitory concentration (IC50) of 20 nM. The same measure for `COC(=O)c1cccc(Cn2nc(/C(F)=C/c3ccc(OC(F)(F)F)cc3)cc2C)c1` [Example 18, Methyl 3-[(3-{(Z)-1-fluoro-2-[4-(trifluoromethoxy)phenyl]vinyl}-5-methyl-1H-pyrazol-1-yl)methyl]benzoate]: 20 nM.

Take `Cc1cc(/C(F)=C/c2ccc(OC(F)(F)F)cc2)nn1Cc1cccc(C(=O)N(C)C)c1` [Example 25, 3-[(3-{(Z)-1-Fluoro-2-[4-(trifluoromethoxy)phenyl]vinyl}-5-methyl-1H-pyrazol-1-yl)methyl]-N,N-dimethylbenzamide]: the half-inhibitory concentration (IC50) amounted to 6 nM. For the compound `CNc1ccc(Cn2nc(/C(F)=C/c3ccc(N4CC(C)OC(C)C4)nc3)cc2C)cn1` (stereo not drawn) [Example 95, 5-[(3-{(Z)-2-[6-(2,6-Dimethylmorpholin-4-yl)pyridin-3-yl]-1-fluorovinyl}-5-methyl-1H-pyrazol-1-yl)methyl]-N-methylpyridine-2-amine], the IC50 was 0.6 nM. The compound `Cc1cc(/C(F)=C/c2ccc(CN(C(C)C)C(C)C)cc2)nn1Cc1ccnc(N2CCN(C3CC3)CC2)c1` [Example 109, N-{4-[(Z)-2-(1-{[2-(4-Cyclopropylpiperazin-1-yl)pyridin-4-yl]methyl}-5-methyl-1H-pyrazol-3-yl)-2-fluorovinyl]benzyl}-N-isopropylpropane-2-amine] registered an IC50 of 1.5 nM.

The compound `Cc1cc(/C(F)=C/c2ccc(C(C)(C)C(F)(F)F)cc2)nn1Cc1ccnc(N2CCN(C3CC3)CC2)c1` [Example 104, 1-Cyclopropyl-4-{4-[(3-{(Z)-1-fluoro-2-[4-(1,1,1-trifluoro-2-methylpropan-2-yl)phenyl]vinyl}-5-methyl-1H-pyrazol-1-yl)methyl]pyridin-2-yl}piperazine] showed an IC50 of 0.4 nM.

Consider `CNc1ccc(Cn2nc(/C(F)=C/c3ccc(C(F)(F)F)cc3)cc2C)cn1` [Example 85, 5-[(3-{(Z)-1-Fluoro-2-[4-(trifluoromethyl)phenyl]vinyl}-5-methyl-1H-pyrazol-1-yl)methyl]-N-methylpyridine-2-amine], for which half-maximal inhibition (IC50) was put at 4 nM.

For the compound `Cc1cc(/C=C(\F)c2ccc(OC(F)(F)F)cc2)nn1Cc1cccc(N2CC(O)C2)c1` [Example 113, 1-{3-[(3-{(Z)-2-Fluoro-2-[4-(trifluoromethoxy)phenyl]vinyl}-5-methyl-1H-pyrazol-1-yl)methyl]-phenyl}azetidin-3-ol], 4 nM corresponded to half-maximal inhibition (IC50).

`Cc1cc(/C(F)=C/c2ccc(C(C)(C)C(F)(F)F)cc2)nn1Cc1cccc(C(F)(F)CO)c1` [Example 62, 2,2-Difluoro-2-{3-[(3-{(Z)-1-fluoro-2-[4-(1,1,1-trifluoro-2-methylpropan-2-yl)phenyl]vinyl}-5-methyl-1H-pyrazol-1-yl)methyl]phenyl}ethanol] registered a half-inhibitory concentration (IC50) of 2.5 nM. `CNc1ccc(Cn2nc(/C(F)=C/c3ccc(OC(F)(F)F)c(F)c3)cc2C)cn1` [Example 80, 5-[(3-{(Z)-1-Fluoro-2-[3-fluoro-4-(trifluoromethoxy)phenyl]vinyl}-5-methyl-1H-pyrazol-1-yl)-methyl]-N-methylpyridine-2-amine]: the half-inhibitory concentration (IC50) came to 2.8 nM. The same measure for `Cc1cc(/C(F)=C/c2ccc(C3(C(F)(F)F)CC3)cc2)nn1Cc1cccc(N2CCC(C#N)CC2)c1` [Example 11, 1-[3-({3-[(Z)-1-Fluoro-2-{4-[1-(trifluoromethyl)cyclopropyl]phenyl}vinyl]-5-methyl-1H-pyrazol-1-yl}methyl)phenyl]piperidine-4-carbonitrile]: 0.2 nM; for `Cc1cc(/C(F)=C/c2ccc(OC(F)(F)F)c(Cl)c2)nn1Cc1ccnc(N2CCN(C3CC3)CC2)c1` [Example 103, 1-{4-[(3-{(Z)-2-[3-Chloro-4-(trifluoromethoxy)phenyl]-1-fluorovinyl}-5-methyl-1H-pyrazol-1-yl)-methyl]pyridin-2-yl}-4-cyclopropylpiperazine]: 2.5 nM. To `Cc1cc(/C(F)=C/c2ccc(OC(F)(F)F)cc2)nn1Cc1cccc(C(=O)N2CCCC2)c1` [Example 26, {3-[(3-{(Z)-1-Fluoro-2-[4-(trifluoromethoxy)phenyl]vinyl}-5-methyl-1H-pyrazol-1-yl)-methyl]phenyl}(pyrrolidin-1-yl)methanone] belongs 1.5 nM.
